Assay results as given in PMC7993833, “EDP-938, a novel nucleoprotein inhibitor of respiratory syncytial virus, demonstrates potent antiviral activities in vitro and in a non-human primate model” (PLoS Pathogens, 2021).

How the values were obtained:
[1] = tested on: RSV-A2; test: RT-qPCR assay, RSV-A2 in Vero cells; type: cell-based; settings: human respiratory syncytial virus
Protocol: (§1) HEp-2, Vero, and BHK were seeded at 8,000 cells per well (cpw) in growth medium (Dulbecco’s Modified Eagle Medium (DMEM) with 1% GlutaMAX, 1% Penicillin/Streptomycin (P/S), 1% Non-Essential Amino Acids (NEAA), 10% Fetal Bovine Serum (FBS)) or (Minimum Essential Medium (MEM) with 10% FBS, 1% NEAA, 1% P/S) or (Eagle’s Minimum Essential Medium with L-Glutamine, with 10% FBS, 1% P/S) respectively. A549 seeded at 3,000 cpw in F-12K Kaighn’s Modification nutrient mixture with 10% FBS, 1% NEAA, 1% P/S. Cells seeded at time of infection in 96-well plates, final well volume 100μL. Compounds suspended in DMSO, serially diluted and added to wells at 0.5% final DMSO concentration. Viral stocks stabilized with 25% sucrose, previously titered using plaque assay, were added at desired MOI. Sucrose added to cells-only control wells to match percent added with virus. Unless otherwise noted, RSV-A strains were tested at 0.1 MOI and incubated for 5 days in a 37°C, 5% CO2 humidified incubator, and RSV-B at 0.5 MOI for 6 days. Cytopathic effect (CPE) determined using ATPlite (Perkin Elmer) measured with Envision luminometer. For RT-qPCR, RNA was extracted from whole well using Ambion RNAqueous-96 Automated Kit, and RT-qPCR run using Applied Biosystems TaqMan RNA-to-CT 1-Step Kit. […] All EC50s were calculated using the XLFit four-parameter logistic model 200 in Microsoft Excel.

[2] = tested on: RSV-A clinical isolates; test: RSV Virospot reduction assay (ViroClinics), RSV-A isolates from the Netherlands; type: cell-based; settings: human respiratory syncytial virus, 10 RSV-A strains from the Netherlands
Protocol: To further expand testing against clinical isolates, the compound was assayed against a panel of 10 RSV-A and 10 RSV-B strains mainly isolated from children of age 2–200 weeks in the Netherlands.
RSV clinical isolates were obtained from Baylor University and Medical College of Wisconsin. MOI of 0.1 used for all clinical isolates except RSV-A 629-9-2 (0.01) and RSV-B 629-24/2007 (0.0044) due to low titer. Virospot reduction assay was run by ViroClinics (Rotterdam, the Netherlands) against 20 additional RSV clinical isolates.

[3] = tested on: RSV-B VR-955; test: RT-qPCR assay, RSV-B VR-955 in primary HBECs; type: cell-based; settings: human respiratory syncytial virus, primary HBEC
[4] = tested on: RSV-A clinical isolates; test: Susceptibility of USA-derived RSV-A clinical isolates; type: cell-based; settings: human respiratory syncytial virus
Protocol: Serial dilutions of the compound were added to cells infected with RSV-A isolates at an MOI of 0.1 (except for isolate 629-9-2 at an MOI of 0.01) or RSV-B isolates at an MOI of 0.5 (expect for isolate 629-24/2007 at an MOI of 0.0044) and were treated for 5 or 6 days, respectively. […] This is consistent with the fact that the viral N protein, which is the putative target of the antiviral effect of EDP-938, is the most conserved RSV protein [11].
HEp-2, Vero, and BHK were seeded at 8,000 cells per well (cpw) in growth medium (Dulbecco’s Modified Eagle Medium (DMEM) with 1% GlutaMAX, 1% Penicillin/Streptomycin (P/S), 1% Non-Essential Amino Acids (NEAA), 10% Fetal Bovine Serum (FBS)) or (Minimum Essential Medium (MEM) with 10% FBS, 1% NEAA, 1% P/S) or (Eagle’s Minimum Essential Medium with L-Glutamine, with 10% FBS, 1% P/S) respectively. A549 seeded at 3,000 cpw in F-12K Kaighn’s Modification nutrient mixture with 10% FBS, 1% NEAA, 1% P/S. Cells seeded at time of infection in 96-well plates, final well volume 100μL. Compounds suspended in DMSO, serially diluted and added to wells at 0.5% final DMSO concentration. […] Cytopathic effect (CPE) determined using ATPlite (Perkin Elmer) measured with Envision luminometer. […] All EC50s were calculated using the XLFit four-parameter logistic model 200 in Microsoft Excel. […]

[5] = tested on: RSV-A Long; test: RT-qPCR assay, RSV-A Long in BHK cells; type: cell-based; settings: human respiratory syncytial virus
[6] = tested on: RSV-A2; test: RT-qPCR assay, RSV-A2 in HEp-2 cells; type: cell-based; settings: human respiratory syncytial virus
Protocol: as §1

[7] = tested on: RSV; test: Single-round synchronized infection time-of-addition, RT-qPCR endpoint; type: cell-based, respiratory syncytial virus; settings: HEp-2; MOI 3; cold-synchronized; 2x or 20x EC50; added 0-8 hpi; RT-qPCR at 24 hpi
Protocol: In order to help determine which step of the viral life cycle EDP-938 blocks multiple in vitro time-of-addition studies were performed. In the first study, EDP-938 was administered to cells infected with RSV-A Long at a MOI of 0.1 at 2 hours pre-infection (-2) or 2, 6, or 24 hours post-infection (hpi), and viral CPE evaluated 5 days later. […] A second time-of-addition study explored the ability of EDP-938 to protect not just a population experiencing a spreading infection, but individual cells already infected with RSV. Using a MOI of 3, which infects approximately 95% of all cells, virus was cold-adsorbed to the cells for 1 hour to synchronize infection before transfer to 37°C to induce fusion (marking the 0 hpi time point). Compound was added at times indicated and a 24 hpi RT-qPCR endpoint was employed to constrain viral replication cycle to a single complete cycle.
For single round infection synchronized infection 25,000 HEp-2 cpw seeded 1-day pre-infection. Plates brought to 4°C, viral infection at 3 MOI calculated for 30,000 cpw incubated at 4°C 1hr. Compound added to 0h plate and plates moved to 37°C. Compound added at 2h, 4h, 6h, and 8h post-incubation (when plates moved to 37°C) to appropriate plates. 24 hpi viral copies measured with RT-qPCR as described above.

[8] = tested on: RSV-A2; test: CPE assay, RSV-A2 in HEp-2 cells; type: cell-based; settings: human respiratory syncytial virus
Protocol: as §1

[9] = tested on: RSV-A M37; test: RT-qPCR assay, RSV-A M37 in HEp-2 cells; type: cell-based; settings: human respiratory syncytial virus
Protocol: as §1

[10] = tested on: RSV-A Long; test: RT-qPCR assay, RSV-A Long in primary cotton rat lung cells; type: cell-based; settings: human respiratory syncytial virus, 120 h, RSV-A Long MOI 0.1, 5 days
[11] = tested on: GS-5806- and AZ-27-resistant RSV; test: Activity against GS-5806- and AZ-27-selected resistant viruses; type: cell-based, respiratory syncytial virus; settings: GS-5806- and AZ-27-resistant viruses

Work on `O=C1Nc2ccccc2C(c2ccccc2)=N[C@@H]1Nc1nnc(-c2ncc(C(F)(F)F)cc2N2CCOCC2)o1` [EDP-938] yielded an EC50 [1] of 91 nM, an EC90 [1] of 101 ± 1.7 nM and an EC50 [2] of 43 nM. For the same molecule, the EC50 ([3]; 168 h, RSV-B VR-955 MOI 0.1, 7 days) was 64 ± 30 nM, the EC90 ([3]; RSV-B VR-955) was 74 ± 33 nM and the EC50 [4] was 76 nM. The EC50 [5] was 16800 nM, the EC50 [6] was 59 ± 18 nM and the EC90 [6] was 70 ± 30 nM. The “inhibition of viral RNA production by time of addition” value [7] was “inhibited RNA production at all time points up to 8 hpi”, the EC50 [8] was 28 ± 4 nM and the EC90 [8] was 40 ± 3 nM. It also gave an EC50 [9] of 54 ± 5 nM, an EC90 [9] of 85 ± 21 nM and an EC50 [10] of 10300 nM. The “cross resistance of GS-5806- and AZ-27-resistant strains” value [11] was “no signs of cross resistance”.
